# Target: T1, human Glu-plasminogen (Homo sapiens, UniProt P00747)
# T1 construct: human Glu-plasminogen; purchased Chromogenix, Italy
# Assay: Clot-lysis buffer assay
# Format: biochemical
# Description: The assay method used for evaluating biological activity of the compounds according to the invention was Clot-lysis buffer assay.
# Tested substance were added to the reaction mixture in 10% DMSO. Reaction was started by the addition of thrombin.
# Measured according to the Clot-lysis buffer assay described above.
# T1 sequence (P00747 20-810 limits assumed): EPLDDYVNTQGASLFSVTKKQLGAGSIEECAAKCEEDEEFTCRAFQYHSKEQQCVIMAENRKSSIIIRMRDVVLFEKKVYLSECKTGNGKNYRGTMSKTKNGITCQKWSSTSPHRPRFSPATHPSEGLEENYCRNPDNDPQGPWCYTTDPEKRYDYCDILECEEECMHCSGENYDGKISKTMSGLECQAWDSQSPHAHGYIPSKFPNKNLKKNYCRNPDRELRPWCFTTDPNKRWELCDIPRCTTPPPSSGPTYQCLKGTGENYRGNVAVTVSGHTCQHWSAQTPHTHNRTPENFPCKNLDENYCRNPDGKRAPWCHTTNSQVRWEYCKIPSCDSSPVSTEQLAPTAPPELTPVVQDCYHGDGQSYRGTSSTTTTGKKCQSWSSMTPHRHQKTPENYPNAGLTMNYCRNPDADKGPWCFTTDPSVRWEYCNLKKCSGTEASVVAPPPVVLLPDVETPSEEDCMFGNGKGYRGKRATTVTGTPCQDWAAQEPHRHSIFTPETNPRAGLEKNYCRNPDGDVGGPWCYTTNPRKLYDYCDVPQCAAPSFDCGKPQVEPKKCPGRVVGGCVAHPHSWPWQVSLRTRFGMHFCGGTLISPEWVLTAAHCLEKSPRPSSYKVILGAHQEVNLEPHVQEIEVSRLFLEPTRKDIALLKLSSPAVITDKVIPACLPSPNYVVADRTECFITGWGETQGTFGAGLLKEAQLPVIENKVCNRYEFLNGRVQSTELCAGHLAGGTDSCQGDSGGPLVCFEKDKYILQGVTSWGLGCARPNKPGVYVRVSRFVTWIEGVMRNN
row,SMILES,IC50 [µM]
1,"O=c1cc([C@H]2CCN[C@@H](c3ccc(C(F)(F)F)cc3F)C2)o[nH]1 [Example 73, 5-((2R,4S)-2-(2-Fluoro-4-(trifluoromethyl)phenyl)piperidin-4-yl)isoxazol-3(2H)-one]",1.54
2,"O=c1cc([C@H]2CCN[C@@H](c3ccc(C(F)(F)F)c(F)c3)C2)o[nH]1 [Example 75, 5-((2R,4S)-2-(3-Fluoro-4-(trifluoromethyl)phenyl)piperidin-4-yl)isoxazol-3(2H)-one]",3.1
3,"O=c1cc([C@@H]2CCN[C@H](c3ccc(C(F)(F)F)c(F)c3)C2)o[nH]1 [Example 76, 5-((2S,4R)-2-(3-Fluoro-4-(trifluoromethyl)phenyl)piperidin-4-yl)isoxazol-3(2H)-one]",190
4,"O=c1cc([C@H]2CCN[C@@H](c3ccccc3)C2)o[nH]1 [Example 77, 5-((2R,4S)-2-Phenylpiperidin-4-yl)isoxazol-3(2H)-one]",8
5,O=c1cc([C@H]2CCN[C@H](c3ccccc3)C2)o[nH]1 [Example 78],64.2
6,"O=c1cc([C@H]2CCN[C@@H](C3CCCCC3)C2)o[nH]1 [Example 79, 5-((2R,4S)-2-Cyclohexylpiperidin-4-yl)isoxazol-3(2H)-one]",3.3
7,"O=c1cc([C@H]2CCN[C@H](C3CCCCC3)C2)o[nH]1 [Example 80, 5-((2S,4S)-2-Cyclohexylpiperidin-4-yl)isoxazol-3(2H)-one]",44
8,"Cn1nnc([C@H]2C[C@@H](c3cc(=O)[nH]o3)CCN2)n1 [Example 81, 5-((2R,4S)-2-(2-Methyl-2H-tetrazol-5-yl)piperidin-4-yl)isoxazol-3(2H)-one]",1.6
9,"Cn1nnnc1[C@H]1C[C@@H](c2cc(=O)[nH]o2)CCN1 [Example 83, 5-((2R,4S)-2-(1-Methyl-1H-tetrazol-5-yl)piperidin-4-yl)isoxazol-3(2H)-one]",42
10,"O=c1cc([C@H]2CCN[C@@H](COC3CCCCC3)C2)o[nH]1 [Example 84, 5-((2R,4S)-2-(Cyclohexyloxymethyl)piperidin-4-yl)isoxazol-3(2H)-one]",1.7
11,"O=c1cc([C@@H]2CCN[C@H](COC3CCCCC3)C2)o[nH]1 [Example 85, 5-((2S,4R)-2-(Cyclohexyloxymethyl)piperidin-4-yl)isoxazol-3(2H)-one]",173
12,"O=c1cc([C@H]2CCN[C@@H](C(F)F)C2)o[nH]1 [Example 87, 5-((2R,4S)-2-(Difluoromethyl)piperidin-4-yl)isoxazol-3(2H)-one]",10.7
13,"O=c1cc([C@H]2CCN[C@@H](CC3CCC(F)(F)CC3)C2)o[nH]1 [Example 89, 5-((2S,4S)-2-((4,4-Difluorocyclohexyl)methyl)piperidin-4-yl)isoxazol-3(2H)-one]",1.5
14,"O=c1cc([C@@H]2CCN[C@H](CC3CCC(F)(F)CC3)C2)o[nH]1 [Example 90, 5-((2R,4R)-2-((4,4-Difluorocyclohexyl)methyl)piperidin-4-yl)isoxazol-3(2H)-one]",102
15,"O=c1cc([C@H]2CCN[C@@H](CCc3ccc(F)cc3)C2)o[nH]1 [Example 92, 5-((2S,4S)-2-(4-Fluorophenethyl)piperidin-4-yl)isoxazol-3(2H)-one]",1.1
16,"O=c1cc([C@@H]2CCN[C@H](CCc3ccc(F)cc3)C2)o[nH]1 [Example 93, 5-((2R,4R)-2-(4-Fluorophenethyl)piperidin-4-yl)isoxazol-3(2H)-one]",69.8
17,"O=c1cc([C@H]2CCN[C@@H](Cc3ccc(C(F)(F)F)cc3)C2)o[nH]1 [Example 104, 5-((2R,4S)-2-(4-(Trifluoromethyl)benzyl)piperidin-4-yl)isoxazol-3(2H)-one]",1.5
18,"O=c1cc([C@H]2CCN[C@H](Cc3ccc(C(F)(F)F)cc3)C2)o[nH]1 [Example 105, 5-((2S,4S)-2-(4-(Trifluoromethyl)benzyl)piperidin-4-yl)isoxazol-3(2H)-one]",7.2
19,"O=c1cc([C@@H]2CCN[C@@H](Cc3ccc(C(F)(F)F)cc3)C2)o[nH]1 [Example 106, 5-((2R,4R)-2-(4-(Trifluoromethyl)benzyl)piperidin-4-yl)isoxazol-3(2H)-one]",88.8
20,"O=c1cc([C@H]2CCN[C@@H](Cc3cccc(C(F)(F)F)c3)C2)o[nH]1 [Example 107, 5-((2R,4S)-2-(3-(Trifluoromethyl)benzyl)piperidin-4-yl)isoxazol-3(2H)-one]",1.7
21,"O=c1cc([C@@H]2CCN[C@H](Cc3cccc(C(F)(F)F)c3)C2)o[nH]1 [Example 108, 5-((2S,4R)-2-(3-(Trifluoromethyl)benzyl)piperidin-4-yl)isoxazol-3(2H)-one]",70.5
22,"O=c1cc([C@H]2CCN[C@@H](Cc3ccccc3C(F)(F)F)C2)o[nH]1 [Example 110, 5-((2R,4S)-2-(2-(Trifluoromethyl)benzyl)piperidin-4-yl)isoxazol-3(2H)-one]",1.2
23,"O=c1cc([C@@H]2CCN[C@H](Cc3ccccc3C(F)(F)F)C2)o[nH]1 [Example 111, 5-((2S,4R)-2-(2-(trifluoromethyl)benzyl)piperidin-4-yl)isoxazol-3(2H)-one]",31.3

row,SMILES,IC50 [µM]
1,"O=c1cc([C@H]2CCN[C@@H](Cc3ccc(OC(F)(F)F)cc3)C2)o[nH]1 [Example 113, 5-((2R,4S)-2-(4-(Trifluoromethoxy)benzyl)piperidin-4-yl)isoxazol-3(2H)-one]",1.1
2,"O=c1cc([C@H]2CCN[C@@H](Cc3ccc(Cl)cc3)C2)o[nH]1 [Example 115, 5-((2R,4S)-2-(4-Chlorobenzyl)piperidin-4-yl)isoxazol-3(2H)-one]",0.8
3,"CS(=O)(=O)c1ccc(C[C@H]2C[C@@H](c3cc(=O)[nH]o3)CCN2)cc1 [Example 117, 5-((2R,4S)-2-(4-(Methylsulfonyl)benzyl)piperidin-4-yl)isoxazol-3(2H)-one]",0.8
4,"CS(=O)(=O)c1ccc(C[C@@H]2C[C@H](c3cc(=O)[nH]o3)CCN2)cc1 [Example 118, 5-((2S,4R)-2-(4-(Methylsulfonyl)benzyl)piperidin-4-yl)isoxazol-3(2H)-one]",225
5,"O=c1cc([C@H]2CCN[C@@H](Cc3ccc(F)c(F)c3)C2)o[nH]1 [Example 120, 5-((2R,4S)-2-(3,4-Difluorobenzyl)piperidin-4-yl)isoxazol-3(2H)-one]",0.89
6,"O=c1cc([C@@H]2CCN[C@H](Cc3ccc(F)c(F)c3)C2)o[nH]1 [Example 121, 5-((2S,4R)-2-(3,4-Difluorobenzyl)piperidin-4-yl)isoxazol-3(2H)-one]",120
7,"O=c1cc([C@H]2CCN[C@H](Cc3ccc(F)c(F)c3)C2)o[nH]1 [Example 122, 5-((2S,4S)-2-(3,4-Difluorobenzyl)piperidin-4-yl)isoxazol-3(2H)-one]",4.4
8,"O=c1cc([C@@H]2CCN[C@@H](Cc3ccc(F)c(F)c3)C2)o[nH]1 [Example 123, 5-((2R,4R)-2-(3,4-Difluorobenzyl)piperidin-4-yl)isoxazol-3(2H)-one]",147
9,"O=c1cc([C@H]2CCN[C@@H](Cc3cc(F)ccc3F)C2)o[nH]1 [Example 124, 5-((2R,4S)-2-(2,5-Difluorobenzyl)piperidin-4-yl)isoxazol-3(2H)-one]",1.2
10,"O=c1cc([C@@H]2CCN[C@H](Cc3cc(F)ccc3F)C2)o[nH]1 [Example 125, 5-((2S,4R)-2-(2,5-Difluorobenzyl)piperidin-4-yl)isoxazol-3(2H)-one]",92.9
11,"O=c1cc([C@H]2CCN[C@@H](Cc3c(F)cccc3F)C2)o[nH]1 [Example 127, 5-((2R,4S)-2-(2,6-Difluorobenzyl)piperidin-4-yl)isoxazol-3(2H)-one]",1.4
12,"O=c1cc([C@@H]2CCN[C@H](Cc3c(F)cccc3F)C2)o[nH]1 [Example 128, 5-((2S,4R)-2-(2,6-Difluorobenzyl)piperidin-4-yl)isoxazol-3(2H)-one]",31.4
13,"O=c1cc([C@H]2CCN[C@@H](Cc3cc(F)cc(F)c3)C2)o[nH]1 [Example 130, 5-((2R,4S)-2-(3,5-Difluorobenzyl)piperidin-4-yl)isoxazol-3(2H)-one]",1.1
14,"O=c1cc([C@@H]2CCN[C@H](Cc3cc(F)cc(F)c3)C2)o[nH]1 [Example 131, 5-((2S,4R)-2-(3,5-Difluorobenzyl)piperidin-4-yl)isoxazol-3(2H)-one]",128
15,"O=c1cc([C@H]2CCN[C@H](Cc3cc(F)cc(F)c3)C2)o[nH]1 [Example 132, 5-((2S,4S)-2-(3,5-Difluorobenzyl)piperidin-4-yl)isoxazol-3(2H)-one]",2.2
16,"O=c1cc([C@@H]2CCN[C@@H](Cc3cc(F)cc(F)c3)C2)o[nH]1 [Example 133, 5-((2R,4R)-2-(3,5-Difluorobenzyl)piperidin-4-yl)isoxazol-3(2H)-one]",120
17,"O=c1cc([C@H]2CCN[C@@H](Cc3ccc(F)cc3F)C2)o[nH]1 [Example 134, 5-((2R,4S)-2-(2,4-Difluorobenzyl)piperidin-4-yl)isoxazol-3(2H)-one]",0.85
18,"O=c1cc([C@@H]2CCN[C@H](Cc3ccc(F)cc3F)C2)o[nH]1 [Example 135, 5-((2S,4R)-2-(2,4-Difluorobenzyl)piperidin-4-yl)isoxazol-3(2H)-one]",69.1
19,"O=c1cc([C@H]2CCN[C@@H](Cc3cc(F)cc(C(F)(F)F)c3)C2)o[nH]1 [Example 137, 5-((2R,4S)-2-(3-Fluoro-5-(trifluoromethyl)benzyl)piperidin-4-yl)isoxazol-3(2H)-one]",1
20,"O=c1cc([C@@H]2CCN[C@H](Cc3cc(F)cc(C(F)(F)F)c3)C2)o[nH]1 [Example 138, 5-((2S,4R)-2-(3-Fluoro-5-(trifluoromethyl)benzyl)piperidin-4-yl)isoxazol-3(2H)-one]",123
21,"O=c1cc([C@H]2CCN[C@@H](Cc3ccc(C(F)(F)F)c(F)c3)C2)o[nH]1 [Example 140, 5-((2R,4S)-2-(3-Fluoro-4-(trifluoromethyl)benzyl)piperidin-4-yl)isoxazol-3(2H)-one]",0.6
22,"O=c1cc([C@@H]2CCN[C@H](Cc3ccc(C(F)(F)F)c(F)c3)C2)o[nH]1 [Example 141, 5-((2S,4R)-2-(3-Fluoro-4-(trifluoromethyl)benzyl)piperidin-4-yl)isoxazol-3(2H)-one]",69.5

# Source: patent publication US8415378B2, “Isoxazol-3(2H)-one analogs as therapeutic agents” (AstraZeneca AB, priority 2009, dated 2013)
